{
  "source": "patent US9695155B2",
  "about": "“Herbicidal substituted pyrimidinyloxy benzene compounds” (E. I. DU PONT DE NEMOURS AND COMPANY, priority 2013, dated 2017)",
  "key": {"chickweed": {"tested_on": "chickweed", "experiment": "Test D postemergence", "format": "in vivo, Stellaria media", "method_in_brief": "(§1)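 After treatment, visual injury versus untreated plants, 0–100 scale, assessed at 7 to 21 days. Applications were made preemergence to silt loam-sown seed and postemergence to seedlings 2–18 cm high in potting medium.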"}, "wild radish": {"tested_on": "wild radish", "experiment": "Test D preemergence", "format": "in vivo, Raphanus raphanistrum", "method_in_brief": "as §1"}, "oilseed rape": {"tested_on": "oilseed rape", "experiment": "Test D postemergence", "format": "in vivo, Brassica napus", "method_in_brief": "as §1"}, "kochia": {"tested_on": "kochia", "experiment": "Test D preemergence", "format": "in vivo, Kochia scoparia", "method_in_brief": "as §1"}, "canarygrass [1]": {"tested_on": "canarygrass", "experiment": "Test D postemergence", "format": "in vivo, Phalaris minor", "method_in_brief": "as §1"}, "canarygrass [2]": {"tested_on": "canarygrass", "experiment": "Test D preemergence", "format": "in vivo, Phalaris minor", "method_in_brief": "as §1"}, "green foxtail": {"tested_on": "green foxtail", "experiment": "Test D postemergence", "format": "in vivo, Setaria viridis", "method_in_brief": "as §1"}, "lambsquarters": {"tested_on": "lambsquarters", "experiment": "Test D postemergence", "format": "in vivo, Chenopodium album", "method_in_brief": "as §1"}, "wild buckwheat": {"tested_on": "wild buckwheat", "experiment": "Test D postemergence", "format": "in vivo, Polygonum convolvulus", "details": "Postemergence, scale 0 to 100 (0 no effect, 100 complete control)", "method_in_brief": "as §1"}, "pigweed": {"tested_on": "pigweed", "experiment": "Test D postemergence", "format": "in vivo, Amaranthus retroflexus", "method_in_brief": "as §1"}, "[3]": {"details": "62 g ai/ha, scale 0 to 100 (0 no effect, 100 complete control)"}, "[4]": {"details": "125 g ai/ha, scale 0 to 100 (0 no effect, 100 complete control)"}, "[5]": {"details": "250 g ai/ha, scale 0 to 100 (0 no effect, 100 complete control)"}, "[6]": {"details": "31 g ai/ha, scale 0 (no effect) to 100 (complete control)"}},
  "data": [
    {"smiles": "N#Cc1cccc(Oc2ncc(Cl)cn2)c1-n1cc(-n2ccc(C(F)(F)F)n2)cn1", "note": "[Compound 284]", "values": [
      {"measurement": "Plant response rating, Chickweed", "setting": "chickweed; 31 g ai/ha, scale 0-100", "value": 80},
      {"measurement": "Plant response rating, Chickweed", "setting": "chickweed; [3]", "value": 85},
      {"measurement": "Plant response rating, Chickweed", "setting": "chickweed; [4]", "value": 90},
      {"measurement": "Plant response rating, Chickweed", "setting": "chickweed; [5]", "value": 100},
      {"measurement": "Plant response rating, Radish, Wild", "setting": "wild radish; [6]", "value": 0},
      {"measurement": "Plant response rating, Radish, Wild", "setting": "wild radish; 125 g ai/ha, scale 0-100", "value": 0},
      {"measurement": "Plant response rating, Radish, Wild", "setting": "wild radish; 250 g ai/ha, scale 0-100", "value": 35},
      {"measurement": "Plant response rating, Oilseed Rape", "setting": "oilseed rape; 31 g ai/ha, scale 0-100", "value": 65},
      {"measurement": "Plant response rating, Oilseed Rape", "setting": "oilseed rape; [3]", "value": 70},
      {"measurement": "Plant response rating, Oilseed Rape", "setting": "oilseed rape; [4]", "value": 100},
      {"measurement": "Plant response rating, Oilseed Rape", "setting": "oilseed rape; [5]", "value": 100},
      {"measurement": "Plant response rating, Kochia", "setting": "kochia; [6]", "value": 0},
      {"measurement": "Plant response rating, Kochia", "setting": "kochia; 62 g ai/ha, scale 0-100", "value": 20},
      {"measurement": "Plant response rating, Kochia", "setting": "kochia; 125 g ai/ha, scale 0-100", "value": 100},
      {"measurement": "Plant response rating, Kochia", "setting": "kochia; 250 g ai/ha, scale 0-100", "value": 95},
      {"measurement": "Plant response rating, Canarygrass", "setting": "canarygrass [1]; 31 g ai/ha, scale 0-100", "value": 20},
      {"measurement": "Plant response rating, Canarygrass", "setting": "canarygrass [1]; [3]", "value": 20},
      {"measurement": "Plant response rating, Canarygrass", "setting": "canarygrass [1]; [4]", "value": 25},
      {"measurement": "Plant response rating, Canarygrass", "setting": "canarygrass [1]; [5]", "value": 25},
      {"measurement": "Plant response rating, Canarygrass", "setting": "canarygrass [2]; [6]", "value": 30},
      {"measurement": "Plant response rating, Canarygrass", "setting": "canarygrass [2]; 62 g ai/ha, scale 0-100", "value": 25},
      {"measurement": "Plant response rating, Canarygrass", "setting": "canarygrass [2]; 125 g ai/ha, scale 0-100", "value": 35},
      {"measurement": "Plant response rating, Canarygrass", "setting": "canarygrass [2]; 250 g ai/ha, scale 0-100", "value": 60},
      {"measurement": "Plant response rating, Foxtail, Green", "setting": "green foxtail; 31 g ai/ha, scale 0-100", "value": 10},
      {"measurement": "Plant response rating, Foxtail, Green", "setting": "green foxtail; [3]", "value": 10},
      {"measurement": "Plant response rating, Foxtail, Green", "setting": "green foxtail; [4]", "value": 50},
      {"measurement": "Plant response rating, Foxtail, Green", "setting": "green foxtail; [5]", "value": 85},
      {"measurement": "Plant response rating, Lambsquarters", "setting": "lambsquarters; 31 g ai/ha, scale 0-100", "value": 85},
      {"measurement": "Plant response rating, Lambsquarters", "setting": "lambsquarters; [3]", "value": 98},
      {"measurement": "Plant response rating, Lambsquarters", "setting": "lambsquarters; [4]", "value": 100},
      {"measurement": "Plant response rating, Lambsquarters", "setting": "lambsquarters; [5]", "value": 100},
      {"measurement": "Plant response rating, Buckwheat, Wild", "setting": "wild buckwheat; 62 g ai/ha", "value": 100},
      {"measurement": "Plant response rating, Buckwheat, Wild", "setting": "wild buckwheat; 31 g ai/ha", "value": 100},
      {"measurement": "Plant response rating, Buckwheat, Wild", "setting": "wild buckwheat; 125 g ai/ha", "value": 100},
      {"measurement": "Plant response rating, Buckwheat, Wild", "setting": "wild buckwheat; 250 g ai/ha", "value": 100},
      {"measurement": "Plant response rating, Pigweed", "setting": "pigweed; 31 g ai/ha, scale 0-100", "value": 100},
      {"measurement": "Plant response rating, Pigweed", "setting": "pigweed; [3]", "value": 100},
      {"measurement": "Plant response rating, Pigweed", "setting": "pigweed; [4]", "value": 100},
      {"measurement": "Plant response rating, Pigweed", "setting": "pigweed; [5]", "value": 100}
    ]}
  ]
}
